Read-outs that look alike come from different tables or passages of the source.
Key:
[1] = target: T1, recombinant human CB1 receptor (Homo sapiens, UniProt P21554); assay: Cannabinoid Receptor-1 (CB1) Binding Assay
T1 construct: expressed in transfected cells; CB1-CHO cell suspension for cAMP
Experimental: Binding affinity determination is based on recombinant human CB1 receptor expressed in Chinese Hamster Ovary (CHO) cells (Felder et al, Mol. Pharmacol. 48: 443-450, 1995). Total assay volume is 250 μl (240 μl CB1 receptor membrane solution plus 5 μl test compound solution plus 5 μl [3H]CP-55940 solution). Final concentration of [3H]CP-55940 is 0.6 nM. Binding buffer contains 50 mM Tris-HCl, pH7.4, 2.5 mM EDTA, 5 mM MgCl2, 0.5 mg/mL fatty acid free bovine serum albumin and protease inhibitors (Cat#P8340, from Sigma). To initiate the binding reaction, 5 μl of radioligand solution is added, the mixture is incubated with gentle shaking on a shaker for 1.5 h at 30° C. The binding is terminated by using 96-well harvester and filtering through GF/C filter presoaked in 0.05% polyethylenimine. The bound radiolabel is quantitated using scintillation counter. Apparent binding affinities for various compounds are calculated from IC50 values (DeBlasi et al., Trends Pharmacol Sci 10: 227-229, 1989).

[2] = target: T2, recombinant human CB1 receptor expressed in CHO cells (Homo sapiens, UniProt P21554); assay: Cannabinoid Receptor-1 (CB1) Functional Activity Assay (cAMP); type: cell-based
T2 construct: expressed in transfected cells; CB1-CHO cell suspension for cAMP
T2 sequence (P21554 whole entry): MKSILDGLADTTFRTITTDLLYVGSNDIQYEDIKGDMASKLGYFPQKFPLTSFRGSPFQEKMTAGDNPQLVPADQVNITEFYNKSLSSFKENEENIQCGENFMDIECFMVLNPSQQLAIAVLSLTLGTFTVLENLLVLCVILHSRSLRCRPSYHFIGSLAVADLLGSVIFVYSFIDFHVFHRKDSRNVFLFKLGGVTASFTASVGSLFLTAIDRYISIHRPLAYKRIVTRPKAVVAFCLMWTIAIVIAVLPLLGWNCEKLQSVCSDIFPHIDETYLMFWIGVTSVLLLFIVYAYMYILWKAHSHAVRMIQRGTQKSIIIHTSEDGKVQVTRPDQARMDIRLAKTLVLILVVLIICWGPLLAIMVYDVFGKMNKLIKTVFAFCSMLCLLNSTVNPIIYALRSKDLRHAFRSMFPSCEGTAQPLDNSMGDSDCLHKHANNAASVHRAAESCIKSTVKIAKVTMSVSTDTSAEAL
Experimental: The functional activation of CB1 receptor is based on recombinant human CBI receptor expressed in CHO cells (Felder et al, Mol. Pharmacol. 48: 443-450, 1995). To determine the agonist activity or inverse agonist activity of any test compound, 50 ul of CB1-CHO cell suspension are mixed with test compound and 70 ul assay buffer containing 0.34 mM 3-isobutyl-1-methylxanthine and 5.1 uM of forskolin in 96-well plates. The assay buffer is comprised of Earle's Balanced Salt Solution supplemented with 5 mM MgCl2, 1 mM glutamine, 10 mM HEPES, and 1 mg/mL bovine serum albumin. The mixture is incubated at room temperature for 30 minutes, and terminated by adding 30 μl/well of 0.5M HCl. The total intracellular cAMP level is quantitated using the New England Nuclear Flashplate and cAMP radioimmunoassay kit.

[3] = recombinant human CB1 receptor in CHO cells, [3H]CP-55940 0.6 nM, read-out: CB1 binding IC50
[4] = CB1-CHO cells, forskolin, intracellular cAMP, read-out: CB1 function activity EC50

T1 sequence (P21554 whole entry): as above

**Q.** Which results are given for `O=C(CC1CC1)N1CCN(S(=O)(=O)c2cccc3ccccc23)CC1` [Example 17, 4-(cyclopropyl-acetyl)-1-(1-naphthylsulfonyl)piperazine]?
**A.** IC50 [1, 3]: 303 nM; EC50 [2, 4]: 1.1 nM

**Q.** Which results are given for `O=C(N1CCCCC1)N1CCN(S(=O)(=O)c2cccc3ccccc23)CC1` [Example 83, 4-(piperidin-1-yl-carbonyl)-1-(1-naphthylsulfonyl) piperazine]?
**A.** IC50 [1, 3]: 3790 nM; EC50 [2, 4]: 10.5 nM

**Q.** Which IC50 [1, 3] does the source give for `O=C(c1ccccc1)N1CCN(S(=O)(=O)c2cc(C(F)(F)F)cc(C(F)(F)F)c2)CC1` [Example 89, 4-benzoyl-1-((3,5-bis(trifluoromethyl)phenyl)sulfonyl)piperazine] here?
**A.** Its IC50 is 3220 nM.

**Q.** And the EC50 [2, 4]?
**A.** Its EC50 is 37.7 nM.

**Q.** Which IC50 [1, 3] does the source give for `O=C(C1CCCCC1)N1CCN(S(=O)(=O)c2cc(Cl)cc(Cl)c2)CC1` [Example 101, 4-(cyclohexyl-carbonyl)-1-((3,5-dichlorophenyl)sulfonyl)piperazine] here?
**A.** The IC50 was 422 nM.

**Q.** What about the EC50 [2, 4] of the same compound?
**A.** Its EC50 is 0.41 nM.

**Q.** Which results are given for `O=C(C1CCCCC1)N1C2CCC1CN(S(=O)(=O)c1cccc3ccccc13)C2` [Example 114, 8-(cyclohexylcarbonyl)-3-(1-naphthylsulfonyl)-3,8-diazabicyclo[3.2.1]octane]?
**A.** IC50 [1]: 3190 nM; EC50 [2]: 15.1 nM

**Q.** What does the source list for `O=C(Cc1ccc(C(F)(F)F)cc1)N1CCN(S(=O)(=O)c2cc(C3CC3)cc(C(F)(F)F)c2)CC1` [Example 123, 4-(4-trifluoromethylphenyl-acetyl)-1-((3-cyclopropyl-5-trifluoromethyl-phenyl)sulfonyl)piperazine]?
**A.** IC50 [1]: 1.24 nM; EC50 [2, 4]: 1.09 nM

**Q.** For `COC(=O)c1cc(C(F)(F)F)cc(S(=O)(=O)N2CCN(C(=O)Cc3ccc(C(F)(F)F)cc3)CC2)c1` [Example 125, 4-(4-trifluoromethylphenyl-acetyl)-1-((3-methoxycarbonyl-5-trifluoromethyl-phenyl)sulfonyl)piperazine], which IC50 [1, 3] is on record?
**A.** Its IC50 is 6.07 nM.

**Q.** What about the EC50 [2, 4] of the same compound?
**A.** The EC50 was 0.7 nM.

**Q.** How did the IC50 [1, 3] turn out when `O=C(C1CCCCC1)N1CCN(S(=O)(=O)c2cc(C(F)(F)F)cc(C(F)(F)F)c2)CC1` [Example 132, 4-(cyclohexyl-carbonyl)-1-((3,5-bis(trifluoromethyl)phenyl)sulfonyl)piperazine] was run?
**A.** Its IC50 is 260 nM.

**Q.** What about the EC50 [2] of the same compound?
**A.** Its EC50 is 1.07 nM.
